The subject of the assay is Saccharomyces cerevisiae. The assay is described as follows: Antifungal activity against Saccharomyces cerevisiae W303-1A at 30 mM after 48 hrs. The class given is functional, organism-based.
In the case of “1,10-Dichlorophenothiabismine 5,5-dioxide”, the inhibition zone (IZ) is 13 mm. The same measure for “2,8-Dihydroxy-10-chlorophenothiabismine 5,5-dioxide”: 8 mm. Take “2,10-Dichlorophenothiabismine 5,5-dioxide”: the inhibition zone (IZ) came to 13 mm. As to “4,10-Dichlorophenothiabismine 5,5-dioxide”, the inhibition zone (IZ) was found to be 10 mm. The figure for “10-(4-Dimethylaminobenzoyloxy)phenothiabismine 5,5-dioxide” is 13 mm.

“10-(4-Nitrobenzoyloxy)phenothiabismine 5,5-dioxide”: the inhibition zone (IZ) stood at 17 mm.

“10-(N,N-Diethyldithiocarbamoyl)phenothiabismine 5,5-dioxide” had an inhibition zone (IZ) of 0 mm. In the case of “10-(Pyrrolidinedithiocarbamoyl)phenothiabismine 5,5-dioxide”, the inhibition zone (IZ) is 0 mm. The substance “10-Chloro-2-dimethylaminophenothiabismine 5,5-dioxide” returned an inhibition zone (IZ) of 7 mm. The figure for “10-Chloro-2-fluorophenothiabismine 5,5-dioxide” is 17 mm; for “10-Chloro-2-methoxyphenothiabismine 5,5-dioxide” it is 11 mm.

On to “10-Chloro-2-methylphenothiabismine 5,5-dioxide”, for which the inhibition zone (IZ) is 14 mm. The figure for “10-Chloro-2-phenylphenothiabismine 5,5-dioxide” is 0 mm; for “10-Chloro-2-tert-butylphenothiabismine 5,5-dioxide” it is 0 mm. The same measure for “10-Chloro-2-trifluoromethylphenothiabismine 5,5-dioxide”: 11 mm; for “10-Chloro-3-methylphenothiabismine 5,5-dioxide”: 8 mm; for “10-chlorobenzo[b][1,4]benzothiabismine 5,5-dioxide”: 18 mm.

On to “tert-butyl-[2-[tert-butyl(dimethyl)silyl]oxy-10-chloro-5,5-dioxo-benzo[b][1,4]benzothiabismin-8-yl]oxy-dimethyl-silane”, for which the inhibition zone (IZ) came to 0 mm.

The values are drawn from ChEMBL document CHEMBL1671771, “Bismuth heterocycles based on a diphenyl sulfone scaffold: synthesis and substituent effect on the antifungal activity against Saccharomyces cerevisiae” (Eur J Med Chem, 2011).
